# In ChEMBL document CHEMBL1641539 (Bioorg Med Chem Lett, 2011):
# Experiments:
# [1] = target: Cyclin-dependent kinase 5/CDK5 activator 1 (Homo sapiens) (UniProt Q00535+Q15078); experiment: Inhibition of CDK5/p25 at 10 uM after 60 mins by TR-FRET assay; assay type: protein-complex assay
# [2] = test system: RAF proto-oncogene serine/threonine-protein kinase (Homo sapiens), P04049 [Y340D,Y341D]; experiment: Inhibition of RAF1 Y340D, Y341D mutant at 10 uM after 60 mins by TR-FRET assay
# [3] = target: Serine/threonine-protein kinase PLK3 (Homo sapiens) (UniProt Q9H4B4); experiment: Inhibition of PLK3 at 10 uM after 60 mins by TR-FRET assay
# Chain of Serine/threonine-protein kinase PLK3 (Homo sapiens) (Q9H4B4 whole entry, looked up): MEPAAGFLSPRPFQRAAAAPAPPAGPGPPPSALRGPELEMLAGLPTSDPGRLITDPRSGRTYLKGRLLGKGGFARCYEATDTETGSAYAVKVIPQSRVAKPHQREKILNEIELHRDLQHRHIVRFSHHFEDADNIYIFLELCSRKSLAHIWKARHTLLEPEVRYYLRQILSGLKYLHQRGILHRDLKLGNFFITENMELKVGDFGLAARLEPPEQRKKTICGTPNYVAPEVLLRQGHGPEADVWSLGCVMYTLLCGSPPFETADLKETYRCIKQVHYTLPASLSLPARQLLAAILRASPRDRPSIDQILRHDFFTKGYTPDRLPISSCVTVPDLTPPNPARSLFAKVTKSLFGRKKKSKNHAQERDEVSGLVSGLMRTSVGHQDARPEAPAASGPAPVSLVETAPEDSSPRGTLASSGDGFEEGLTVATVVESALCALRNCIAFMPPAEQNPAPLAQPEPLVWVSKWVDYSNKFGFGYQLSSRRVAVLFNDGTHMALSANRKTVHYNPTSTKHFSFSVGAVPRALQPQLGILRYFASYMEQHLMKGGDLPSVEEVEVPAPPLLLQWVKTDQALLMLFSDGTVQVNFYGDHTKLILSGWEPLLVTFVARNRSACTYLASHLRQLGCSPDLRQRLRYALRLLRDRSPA
# [4] = target: cAMP-dependent protein kinase catalytic subunit alpha (Homo sapiens) (UniProt P17612); experiment: Inhibition of PRKACA at 10 uM after 60 mins by TR-FRET assay
# [5] = target: Mitogen-activated protein kinase 8 (Homo sapiens, UniProt P45983); experiment: Inhibition of recombinant JNK1 after 60 mins by TR-FRET assay
# [6] = target: T1, Mitogen-activated protein kinase 1 (Homo sapiens, UniProt P28482); experiment: Inhibition of recombinant ERK2 after 60 mins by TR-FRET assay
# T1 sequence (P28482 whole entry): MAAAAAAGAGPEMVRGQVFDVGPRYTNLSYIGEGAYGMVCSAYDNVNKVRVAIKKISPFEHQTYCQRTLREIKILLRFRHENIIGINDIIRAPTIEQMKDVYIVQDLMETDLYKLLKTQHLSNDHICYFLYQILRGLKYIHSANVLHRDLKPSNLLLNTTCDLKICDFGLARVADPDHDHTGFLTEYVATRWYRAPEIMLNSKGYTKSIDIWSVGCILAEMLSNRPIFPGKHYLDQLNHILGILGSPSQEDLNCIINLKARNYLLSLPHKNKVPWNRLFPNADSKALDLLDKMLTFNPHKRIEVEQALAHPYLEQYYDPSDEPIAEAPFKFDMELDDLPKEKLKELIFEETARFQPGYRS
# [7] = target: Calcium/calmodulin-dependent protein kinase type II subunit alpha (Homo sapiens) (UniProt Q9UQM7); experiment: Inhibition of CAMK2A at 10 uM after 60 mins by TR-FRET assay
# Chain of Calcium/calmodulin-dependent protein kinase type II subunit alpha (Homo sapiens) (Q9UQM7 whole entry): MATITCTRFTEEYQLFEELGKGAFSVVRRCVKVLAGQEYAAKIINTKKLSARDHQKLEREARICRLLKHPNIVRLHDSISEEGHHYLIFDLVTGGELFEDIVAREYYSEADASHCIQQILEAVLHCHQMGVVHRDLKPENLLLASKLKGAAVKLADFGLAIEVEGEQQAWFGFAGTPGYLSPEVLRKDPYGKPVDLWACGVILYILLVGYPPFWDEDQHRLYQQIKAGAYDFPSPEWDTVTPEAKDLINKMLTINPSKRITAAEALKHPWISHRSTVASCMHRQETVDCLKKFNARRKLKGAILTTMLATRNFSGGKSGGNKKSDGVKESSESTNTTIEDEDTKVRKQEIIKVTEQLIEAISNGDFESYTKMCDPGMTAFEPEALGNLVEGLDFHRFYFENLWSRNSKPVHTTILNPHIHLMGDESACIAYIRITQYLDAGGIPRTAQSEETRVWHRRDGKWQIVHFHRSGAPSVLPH
# [8] = target: Tyrosine-protein kinase ABL1 (Homo sapiens) (UniProt P00519); experiment: Inhibition of ABL1 at 10 uM after 60 mins by TR-FRET assay
# [9] = target: Serine/threonine-protein kinase PLK1 (Homo sapiens) (UniProt P53350); experiment: Inhibition of PLK1 at 10 uM after 60 mins by TR-FRET assay
# [10] = target: T1, Mitogen-activated protein kinase 1; experiment: Inhibition of MAPK1 at 10 uM after 60 mins by TR-FRET assay
# [11] = target: T2, Aurora kinase A (Homo sapiens) (UniProt O14965); experiment: Inhibition of Aurora A at 10 uM after 60 mins by TR-FRET assay
# T2 sequence (whole entry): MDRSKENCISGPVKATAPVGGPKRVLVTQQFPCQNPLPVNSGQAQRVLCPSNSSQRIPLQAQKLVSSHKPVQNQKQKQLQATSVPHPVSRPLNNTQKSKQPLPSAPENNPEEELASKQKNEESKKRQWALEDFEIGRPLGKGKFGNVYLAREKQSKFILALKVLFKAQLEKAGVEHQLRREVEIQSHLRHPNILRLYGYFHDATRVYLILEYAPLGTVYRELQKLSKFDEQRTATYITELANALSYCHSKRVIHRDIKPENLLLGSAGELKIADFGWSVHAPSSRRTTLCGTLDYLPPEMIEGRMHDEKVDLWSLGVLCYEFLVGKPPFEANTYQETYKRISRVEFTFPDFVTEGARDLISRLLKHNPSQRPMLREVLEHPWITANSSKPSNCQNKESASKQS
# [12] = target: Macrophage colony-stimulating factor 1 receptor (Homo sapiens) (UniProt P07333); experiment: Inhibition of CSF1R at 10 uM after 60 mins by TR-FRET assay
# [13] = target: Receptor-type tyrosine-protein kinase FLT3 (Homo sapiens) (UniProt P36888); experiment: Inhibition of FLT3 at 10 uM after 60 mins by TR-FRET assay
# [14] = target: Glycogen synthase kinase-3 beta (Homo sapiens) (UniProt P49841); experiment: Inhibition of GSK3B at 10 uM after 60 mins by TR-FRET assay
# Chain of Glycogen synthase kinase-3 beta (Homo sapiens) (P49841 whole entry, looked up): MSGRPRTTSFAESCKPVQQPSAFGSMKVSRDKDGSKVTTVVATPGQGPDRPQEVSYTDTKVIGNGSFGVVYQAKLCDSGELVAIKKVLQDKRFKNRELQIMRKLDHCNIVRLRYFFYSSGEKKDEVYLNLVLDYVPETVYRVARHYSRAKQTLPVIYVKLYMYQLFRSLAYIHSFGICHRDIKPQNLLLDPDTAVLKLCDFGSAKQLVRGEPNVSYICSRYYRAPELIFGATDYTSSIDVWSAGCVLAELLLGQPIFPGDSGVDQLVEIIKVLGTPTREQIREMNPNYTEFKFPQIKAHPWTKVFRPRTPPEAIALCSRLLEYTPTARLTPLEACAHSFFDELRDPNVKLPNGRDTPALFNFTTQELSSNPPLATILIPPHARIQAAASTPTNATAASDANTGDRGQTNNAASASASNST
# [15] = target: Receptor tyrosine-protein kinase erbB-4 (Homo sapiens) (UniProt Q15303); experiment: Inhibition of ERBB4 at 10 uM after 60 mins by TR-FRET assay
# [16] = target: T3, Serine/threonine-protein kinase 3 (Homo sapiens) (UniProt Q13188); experiment: Inhibition of STK3 at 10 uM after 60 mins by TR-FRET assay
# T3 sequence (whole entry): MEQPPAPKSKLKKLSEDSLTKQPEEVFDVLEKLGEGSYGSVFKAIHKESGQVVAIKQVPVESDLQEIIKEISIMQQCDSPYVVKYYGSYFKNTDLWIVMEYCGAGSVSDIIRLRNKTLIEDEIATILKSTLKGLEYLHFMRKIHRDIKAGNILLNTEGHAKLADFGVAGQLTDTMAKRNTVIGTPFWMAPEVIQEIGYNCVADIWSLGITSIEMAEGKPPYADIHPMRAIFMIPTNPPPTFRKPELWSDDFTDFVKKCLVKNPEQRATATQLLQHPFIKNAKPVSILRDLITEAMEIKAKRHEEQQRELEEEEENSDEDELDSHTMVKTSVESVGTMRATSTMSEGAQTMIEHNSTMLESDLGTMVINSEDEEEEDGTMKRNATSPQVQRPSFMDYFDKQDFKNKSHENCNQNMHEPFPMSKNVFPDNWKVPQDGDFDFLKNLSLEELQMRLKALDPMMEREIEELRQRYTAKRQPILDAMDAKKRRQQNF
# [17] = target: Mitogen-activated protein kinase 9 (Homo sapiens, UniProt P45984); experiment: Inhibition of recombinant JNK2 after 60 mins by TR-FRET assay
# [18] = target: Tyrosine-protein kinase SYK (Homo sapiens) (UniProt P43405); experiment: Inhibition of SYK at 10 uM after 60 mins by TR-FRET assay
# [19] = target: Rho-associated protein kinase 2 (Homo sapiens) (UniProt O75116); experiment: Inhibition of ROCK2 at 10 uM after 60 mins by TR-FRET assay
# [20] = target: Platelet-derived growth factor receptor alpha (Homo sapiens) (UniProt P16234); experiment: Inhibition of PDGFRA at 10 uM after 60 mins by TR-FRET assay
# [21] = target: Insulin receptor (Homo sapiens) (UniProt P06213); experiment: Inhibition of INSR at 10 uM after 60 mins by TR-FRET assay
# [22] = target: Mitogen-activated protein kinase 10 (Homo sapiens, UniProt P53779); experiment: Inhibition of MAPK10 at 10 uM after 60 mins by TR-FRET assay
# [23] = target: Leucine-rich repeat serine/threonine-protein kinase 2 (Homo sapiens) (UniProt Q5S007); experiment: Inhibition of LRRK2 at 10 uM after 60 mins by TR-FRET assay
# Chain of Leucine-rich repeat serine/threonine-protein kinase 2 (Homo sapiens) (Q5S007 whole entry): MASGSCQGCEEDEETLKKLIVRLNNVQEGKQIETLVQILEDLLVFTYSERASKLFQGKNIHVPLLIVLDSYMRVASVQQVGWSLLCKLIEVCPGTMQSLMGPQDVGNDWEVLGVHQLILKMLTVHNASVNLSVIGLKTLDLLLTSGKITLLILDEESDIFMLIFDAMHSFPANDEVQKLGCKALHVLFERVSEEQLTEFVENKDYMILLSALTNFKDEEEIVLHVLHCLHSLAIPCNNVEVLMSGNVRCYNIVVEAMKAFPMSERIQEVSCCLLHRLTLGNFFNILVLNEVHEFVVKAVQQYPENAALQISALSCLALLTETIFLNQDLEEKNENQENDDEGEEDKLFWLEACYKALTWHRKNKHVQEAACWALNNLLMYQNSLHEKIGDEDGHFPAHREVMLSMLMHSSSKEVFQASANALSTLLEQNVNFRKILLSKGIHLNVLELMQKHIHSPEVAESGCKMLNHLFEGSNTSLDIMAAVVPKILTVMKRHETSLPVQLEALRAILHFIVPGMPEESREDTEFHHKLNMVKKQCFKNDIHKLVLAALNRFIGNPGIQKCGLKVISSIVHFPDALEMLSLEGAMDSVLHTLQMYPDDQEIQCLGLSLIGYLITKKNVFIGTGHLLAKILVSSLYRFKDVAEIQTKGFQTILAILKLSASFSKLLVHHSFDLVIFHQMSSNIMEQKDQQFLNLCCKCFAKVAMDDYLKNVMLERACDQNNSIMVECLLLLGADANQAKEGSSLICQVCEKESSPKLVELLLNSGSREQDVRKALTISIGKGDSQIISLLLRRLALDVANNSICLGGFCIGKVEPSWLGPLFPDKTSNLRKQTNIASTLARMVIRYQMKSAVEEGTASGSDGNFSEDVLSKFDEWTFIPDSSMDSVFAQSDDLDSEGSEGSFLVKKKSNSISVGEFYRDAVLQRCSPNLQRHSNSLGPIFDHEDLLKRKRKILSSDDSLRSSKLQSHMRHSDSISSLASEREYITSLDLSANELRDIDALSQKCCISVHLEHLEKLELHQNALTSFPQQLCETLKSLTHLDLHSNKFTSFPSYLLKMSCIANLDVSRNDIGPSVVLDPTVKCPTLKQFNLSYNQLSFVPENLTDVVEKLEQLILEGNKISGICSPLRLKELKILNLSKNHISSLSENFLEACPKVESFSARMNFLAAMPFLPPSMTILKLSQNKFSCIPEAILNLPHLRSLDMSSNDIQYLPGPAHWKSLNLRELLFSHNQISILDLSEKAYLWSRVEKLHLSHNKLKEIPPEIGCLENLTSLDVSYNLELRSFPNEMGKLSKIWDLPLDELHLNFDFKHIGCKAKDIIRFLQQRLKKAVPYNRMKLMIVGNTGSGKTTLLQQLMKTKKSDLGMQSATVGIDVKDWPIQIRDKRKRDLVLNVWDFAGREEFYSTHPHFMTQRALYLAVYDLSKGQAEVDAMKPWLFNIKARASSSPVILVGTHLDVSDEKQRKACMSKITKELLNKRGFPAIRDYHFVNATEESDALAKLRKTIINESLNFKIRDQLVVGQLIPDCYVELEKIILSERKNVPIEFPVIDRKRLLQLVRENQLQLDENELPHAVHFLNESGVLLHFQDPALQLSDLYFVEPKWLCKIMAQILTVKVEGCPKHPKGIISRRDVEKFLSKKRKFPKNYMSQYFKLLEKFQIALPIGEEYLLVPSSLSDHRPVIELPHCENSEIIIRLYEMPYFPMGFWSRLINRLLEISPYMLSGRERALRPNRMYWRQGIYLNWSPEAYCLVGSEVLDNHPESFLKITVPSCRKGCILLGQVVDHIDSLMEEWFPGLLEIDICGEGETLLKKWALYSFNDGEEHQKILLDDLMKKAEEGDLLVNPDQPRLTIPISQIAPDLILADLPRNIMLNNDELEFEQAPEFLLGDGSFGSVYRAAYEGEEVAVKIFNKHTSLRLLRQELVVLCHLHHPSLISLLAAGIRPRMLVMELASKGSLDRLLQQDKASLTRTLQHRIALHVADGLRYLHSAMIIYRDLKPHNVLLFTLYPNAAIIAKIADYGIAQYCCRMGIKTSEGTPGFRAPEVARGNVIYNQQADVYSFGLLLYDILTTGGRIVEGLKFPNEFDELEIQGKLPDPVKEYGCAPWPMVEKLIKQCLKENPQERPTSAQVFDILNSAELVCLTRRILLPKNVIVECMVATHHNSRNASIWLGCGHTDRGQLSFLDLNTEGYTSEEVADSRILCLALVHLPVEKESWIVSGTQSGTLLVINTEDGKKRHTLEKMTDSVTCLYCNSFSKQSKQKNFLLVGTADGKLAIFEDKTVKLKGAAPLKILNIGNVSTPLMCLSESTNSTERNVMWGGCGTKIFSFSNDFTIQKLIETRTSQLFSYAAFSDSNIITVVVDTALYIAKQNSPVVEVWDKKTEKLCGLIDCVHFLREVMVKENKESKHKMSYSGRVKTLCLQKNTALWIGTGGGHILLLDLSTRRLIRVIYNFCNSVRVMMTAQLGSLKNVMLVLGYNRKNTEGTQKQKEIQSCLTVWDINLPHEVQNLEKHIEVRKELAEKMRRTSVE
# [24] = target: Mitogen-activated protein kinase 14 (Homo sapiens, UniProt Q16539); experiment: Inhibition of recombinant p38alpha after 60 mins by TR-FRET assay
# Chain of Mitogen-activated protein kinase 14 (Q16539 whole entry): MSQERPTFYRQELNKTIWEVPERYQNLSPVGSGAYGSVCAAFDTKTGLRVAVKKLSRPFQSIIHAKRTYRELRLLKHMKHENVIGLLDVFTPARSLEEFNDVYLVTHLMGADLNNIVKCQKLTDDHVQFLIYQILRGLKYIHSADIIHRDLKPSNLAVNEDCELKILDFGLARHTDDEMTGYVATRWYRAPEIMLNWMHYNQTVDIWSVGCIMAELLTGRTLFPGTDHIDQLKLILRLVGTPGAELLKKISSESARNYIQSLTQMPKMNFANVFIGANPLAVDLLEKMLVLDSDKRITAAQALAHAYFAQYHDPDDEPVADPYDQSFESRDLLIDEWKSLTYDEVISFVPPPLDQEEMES
# [25] = target: Protein kinase C beta type (Homo sapiens) (UniProt P05771); experiment: Inhibition of PRKCB1 at 10 uM after 60 mins by TR-FRET assay
# [26] = target: Proto-oncogene tyrosine-protein kinase receptor Ret (Homo sapiens) (UniProt P07949); experiment: Inhibition of RET at 10 uM after 60 mins by TR-FRET assay
# [27] = target: Dual specificity protein kinase CLK1 (Homo sapiens) (UniProt P49759); experiment: Inhibition of CLK1 at 10 uM after 60 mins by TR-FRET assay
# [28] = target: RAC-alpha serine/threonine-protein kinase (Homo sapiens) (UniProt P31749); experiment: Inhibition of AKT1 at 10 uM after 60 mins by TR-FRET assay
compound,measurement,setting,value
O=c1[nH]nc(-c2ccnc(NC3CCCCC3)c2)n1-c1ccc2ccccc2c1,inhibition,[1],8%
same,inhibition,[2],13%
same,inhibition,[3],17%
same,inhibition,[4],3%
same,IC50,[5],1000 nM
same,IC50,[6],> 50000 nM
same,inhibition,[7],22%
same,inhibition,[8],4%
same,inhibition,[9],12%
same,inhibition,[10],1%
same,inhibition,[11],17%
same,inhibition,[12],-1%
same,inhibition,[13],12%
same,inhibition,[14],38%
same,inhibition,[15],2%
same,inhibition,[16],-9%
same,IC50,[17],69 nM
same,inhibition,[18],8%
same,inhibition,[19],15%
same,inhibition,[20],1%
same,inhibition,[21],5%
same,inhibition,[22],72%
same,inhibition,[23],11%
same,IC50,[24],> 50000 nM
same,inhibition,[25],2%
same,inhibition,[26],4%
same,inhibition,[27],7%
same,inhibition,[28],-1%
